For test [1], the system named is TAAR1^+/+ and TAAR1^LacZ/LacZ mice. In words: Locomotor activity after d-amphetamine challenge (Digiscan activity monitor). The note with it: 2.5 mg/kg i.p. It is filed as in vivo, mouse. On the procedure: Locomotor activity. A computerized Digiscan 16 Animal Activity Monitoring System (Omnitech Electronics, Colombus, Ohio) was used to quantitate spontaneous locomotor activity. Data were obtained simultaneously from eight Digiscan activity chambers placed in a soundproof room with a 12 hr light/dark cycle. All tests were performed during the light phase (6 a.m. to 6 p.m.). Each activity monitor consisted of a Plexiglas box (20×20×30.5 cm) with sawdust bedding on the floor surrounded by invisible horizontal and vertical infrared sensor beams. The cages were connected to a Digiscan Analyzer linked to a PC that constantly collected the beam status information. With this system, different behavioral parameters could be measured, such as horizontal and vertical activity, total distance travelled (in cm), and stereotypies. The mice were tested via a pseudo-Latin squares design […] with at least a 10-day interval between two consecutive test sessions. […] Locomotor activity was recorded for 90 min starting immediately after the mice were placed in the cages.
Statistics. Behavioral observations were recorded as mean values SE and analyzed with an unpaired t test. Locomotor activity data (total distance) were analyzed with a two-factor (Genotype and Dose) ANOVA with repeated measures. […]

For test [2] the test system is unchanged. Briefly: In vivo microdialysis of extracellular biogenic amines in the striatum after d-amphetamine. On the set-up: species or system mouse. The method, then:
Four months old male mice were used for these experiments. The procedures used for the experiments described in this report received prior approval from the City of Basel Cantonal Animal Protection Committee based on adherence to federal and local regulations on animal maintenance and testing.
Forty-five minutes before anesthesia mice received subcutaneously 0.075 mg/kg of buprenorfine. Mice were then anesthetized with isoflurane and placed in a stereotaxic device equipped with dual manipulators arms and an anesthetic mask. Anesthesia was maintained with isoflurane 0.8-1.2% (v/v; support gas oxygen/air, 2:1). The head was shaved and the skin was cut along the midline to expose the skull. A small bore hole was made in the skull to allow the stereotaxical insertion of the microdialysis probe (vertical probe carrying a 2 mm polyacrilonitrile dialysis membrane; Brains On-line, Groningen, The Netherlands) in the striatum (coordinates: A 0.9 mm, L-1.8 mm, V-4.6 mm). The probe was cemented into place using binary dental cement. Once the cement was firm, the wound was closed with silk thread for suture (Silkam) the animal was removed from the stereotaxic instrument and returned to its cage. At the end of the surgery and 24 hrs later mice were treated with Meloxicam 1 mg/kg sc. The body weight of the animals was measured before the surgery and in the following days to monitor the recovery of the animal from surgery.
All microdialysis experiments were carried out 3-4 days after surgery in awake, freely moving mice. The day of the experiment, the inlet of the implanted dialysis probe was connected to a micro-perfusion pump (CMA/Microdialysis, Sweden) and the outlet was connected to a fraction collector. The microdialysis probe was then perfused with Ringer solution (NaCl 147 mM, KCl 3 mM, CaCl2 1.2 mM, MgC12 1.2 mM) at a constant flow rate of 1.5 μL/min and […] Four samples of dialysates were collected before pharmacological treatment to determine the baseline levels of biogenic amines and their metabolites. Mice were then treated intraperitoneally with 2.5 mg/kg of amphetamine and dialysate samples collected for further 2.5 hrs. Dialysate samples were stored frozen at −80° C. until analysis.
Frozen dialysate samples were shipped in dry ice to Brains On-Line for assay of monoamines and their metabolites. The concentrations of dopamine, DOPAC, serotonin, 5-HIAA and noradrenaline were measured by use an HPLC equipped with an electrochemical detector according to the procedure of van der Vegt et al. (2003).
Concentrations of norepinephrine, dopamine, and serotonin were determined within the same samples by HPLC separation and electrochemical detection. Samples were split into two aliquots; one used for simultaneous analysis of norepinephrine and dopamine, the other for analysis of serotonin.
Aliquots (20 μL) were injected onto the HPLC column by a refrigerated microsampler system, consisting of a syringe pump (Gilson, model 402), a multi-column injector (Gilson, model 233 XL), and a temperature regulator (Gilson, model 832). Chromatographic separation was performed on a reverse-phase 150×2.1 mm (3 μm) C18 Thermo BDS Hypersil column (Keystone Scientific). The mobile phase (isocratic) consisted of a sodium acetate buffer (4.1 g/L Na acetate) with 2.5% v/v methanol, 150 mg/L Titriplex (EDTA), 150 mg/L 1-octanesulfonic acid, and 150 mg/L tetramethylammonium chloride (pH=4.1 adjusted with glacial acetic acid). Mobile phase was run through the system at a flow rate of 0.35 mL/min by an HPLC pump (Shimadzu, model LC-10AD vp).
Norepinephrine and dopamine were detected electrochemically using a potentiostate (Antec Leyden, model Intro) fitted with a glassy carbon electrode set at +500 mV vs. Ag/AgCl (Antec Leyden). Data were analyzed by Chromatography Data System (Shimadzu, class-vp) software. Concentrations of monoamines were quantitated by external standard method. […]

Test [3] relates to dopaminergic neurons in the VTA. In words: Slice electrophysiology, spontaneous firing rate in the ventral tegmental area (current clamp). Format: cell-based, mouse. The note with it: for spike frequency F of dopaminergic neurons: bath application 10 μM. The method, then: Horozontal slices (250 μm thick, VT1000 vibratome, Leica) of the midbrain were prepared from TAAR1 knock-out and littermate wild-type mice 25-60 days of age. Slices were cooled in artificial cerebrospinal fluid (ACSF) containing in mM: 119 NaCl, 2.5 KCl, 1.3 MgCl2, 2.5 CaCl2, 1.0 NaH2PO4, 26.2 NaHCO3 and 11 glucose. Slices were continuously bubbled with 95% O2 and 5% CO2 and transferred after 1 h to the recording chamber superfused (1.5 ml/min) with ACSF at 32-34° C. The VTA was identified as the region medial to the medial terminal nucleus of the accessory optical tract. Visualized whole-cell current-clamp recording techniques were used to measure the spontaneous firing rate and holding currents of neurons. […] Dopaminergic neurons were identified by a large Ih current. The internal solution contained in mM: 140 potassium gluconate, 4 NaCl, 2 MgCl2, 1.1 EGTA, 5 HEPES, 2 Na2ATP, 5 sodium creatine phosphate and 0.6 Na2GTP; the pH was adjusted to 7.3 with KOH. Data were obtained with an Axopatch 200B (Axon Instruments, Union City, Calif., USA), filtered at 2 kHz and digitized at 10 kHz, acquired and analyzed with pClamp9 (Axon Instruments, Union City, Calif., USA). Values are expressed as mean±sem. For statistical comparisons we used the Kolmogorov-Smirnov test. The level of significance was set at P=0.05.

[4] abbreviates: TAAR1^LacZ/LacZ mice, 2.5 mg/kg i.p.

“And” between values parts separate entries of the source, which are not always exact repeats. Identical values can stand only once. “Also recorded” adds a separate entry of the source.

As for `C[C@H](N)Cc1ccccc1` [d-amphetamine], the “locomotor activity (total distance moved) after d-amphetamine, compared to wild type littermates” value in test [1] (TAAR1^LacZ/LacZ mice, n=12, 2.5 mg/kg) is “moved significantly more than wild type littermates; also recorded: significantly higher”. In addition, in test [1] (wild type (TAAR1^+/+) mice), the “locomotor activity (total distance moved) after d-amphetamine injection” value was “decreased”. For the same molecule, in test [2] (2.5 mg/kg i.p., n=7-8), the “amphetamine-triggered increase in extracellular dopamine, TAAR1^LacZ/LacZ relative to TAAR1^+/+” value was 2.3 fold. For the same molecule, the “amphetamine-triggered increase in noradrenaline (norepinephrine), TAAR1^LacZ/LacZ relative to wild type” value in test [2] (2.5 mg/kg i.p., n=7-8, 2.5 mg/kg) was 2.3 fold and 2.4 fold. Further, in test [2] (TAAR1^LacZ/LacZ mice), the “time until DOPAC levels returned to basal levels” value is 135 min. For the same molecule, in test [2] (setting [4]), the “increase of extracellular dopamine level over basal” value came to 11 fold, the “increase of extracellular norepinephrine level over basal” value was 4.9 fold and the “increase of extracellular serotonin level” value is reported as 2.5 fold. Besides, the “DOPAC level versus wild-type control” value in test [2] (TAAR1^LacZ/LacZ mice, 45 min after administration) is given as “significantly decreased”. Besides, the “change of extracellular DOPAC level in response to amphetamine” value in test [2] (both TAAR1^LacZ/LacZ and TAAR1^+/+ mice, 2.5 mg/kg i.p.) is reported as “only a marginal decrease”. Moreover, the “change in levels of the 5-HT metabolite 5-HIAA” value in test [2] (both genotypes, 2.5 mg/kg i.p.) was “No significant changes”. The “change of extracellular serotonin level” value in test [2] (wild type (TAAR1^+/+) mice, 2.5 mg/kg i.p., 2.5 mg/kg) is listed as “remained unchanged; also recorded: not in their TAAR1^+/+ littermates”.

As for `NCCc1ccc(O)cc1` [p-tyramine], the “spike frequency F of dopaminergic neurons” value in test [3] (TAAR1^+/+ mice, n=19, control 2.1±0.3 Hz, p<0.0001) is on record as 0.63±0.04 Hz; in test [3] (TAAR1^LacZ/LacZ mice, n=15, control 16.73±1.15 Hz, p>0.05), 16.57±1.35 Hz. In addition, the “effect on firing rate (spike frequency) of dopaminergic neurons, in words” value in test [3] (wild type (TAAR1^+/+) mice) was “significant decrease; also recorded: decreases the firing rate”.

The values above are taken from patent US20070074297A1, “TAAR1 knock out animal” (priority 2005, published 2007).
